Assay results reported in patent US20230398130A1, “METHODS AND COMPOSITIONS FOR DIFFERENTIATING STEM CELLS” (Massachusetts Institute of Technology, priority 2020, published 2023).

What was measured:
ISC-enriched organoids [1] = experiment: Primary screen, 384-well 2.5-D organoid differentiation (ENR+CD, 6 days): basal lysozyme secretion (LYZ.NS); type: cell-based, murine; conditions: primary screen; for Dose.FC.LYZ.NS: FC vs plate median; for Z.LYZ.NS: standard z score; for SSMD.LYZ.NS: strictly standardized mean difference
Text: (§1) High-throughput screening.

ISC-enriched organoids [2] = experiment: Primary screen, 384-well 2.5-D organoid differentiation (ENR+CD, 6 days): carbachol-induced lysozyme secretion (LYZ.S); type: cell-based, murine; conditions: primary screen; for Dose.FC.LYZ.S: FC vs plate median; for Z.LYZ.S: standard z score; for SSMD.LYZ.S: strictly standardized mean difference
Text: as §1

ISC-enriched organoids [3] = experiment: Primary screen, 384-well 2.5-D organoid differentiation (ENR+CD, 6 days, Target Selective Inhibitor Library, vs whole-plate median): ATP (CellTiter-Glo 3D, CTG); conditions: primary screen; for Dose.FC.CTG: FC vs plate median; for Z.CTG: standard z score; for SSMD.CTG: strictly standardized mean difference
[4] = 1st of the 4 dose lines of the treatment (dose not given)
[5] = 2nd of the 4 dose lines of the treatment (dose not given)
[6] = 3rd of the 4 dose lines of the treatment (dose not given)
[7] = 4th of the 4 dose lines of the treatment (dose not given)

Q: Which results are given for `O=C1[C@H](Cc2ccc(O)cc2)N2C(=O)CCN(C(=O)NCc3ccccc3)[C@H]2CN1Cc1cccc2ccccc12` [ICG-001]?
A: Dose.FC.LYZ.NS (ISC-enriched organoids [1]; Dose 0.08 uM): 0.037 log 2 fold change; Z.LYZ.NS (ISC-enriched organoids [1]; Dose 0.08 uM): 0.324; Dose.FC.LYZ.NS (ISC-enriched organoids [1]; Dose 0.40 uM): 0.037 log 2 fold change; Z.LYZ.NS (ISC-enriched organoids [1]; Dose 0.40 uM): 0.321; Dose.FC.LYZ.NS (ISC-enriched organoids [1]; Dose 2.00 uM): 0.045 log 2 fold change; Z.LYZ.NS (ISC-enriched organoids [1]; Dose 2.00 uM): 0.396; Dose.FC.LYZ.NS (ISC-enriched organoids [1]; Dose 10.00 uM): −0.125 log 2 fold change; Z.LYZ.NS (ISC-enriched organoids [1]; Dose 10.00 uM): −1.093; SSMD.LYZ.NS (ISC-enriched organoids [1]; [4]): 0.280; SSMD.LYZ.NS (ISC-enriched organoids [1]; [5]): 0.339; SSMD.LYZ.NS (ISC-enriched organoids [1]; [6]): 0.413; SSMD.LYZ.NS (ISC-enriched organoids [1]; [7]): −1.162; Dose.FC.LYZ.S (ISC-enriched organoids [2]; Dose 0.08 uM): 0.163 log 2 fold change; Dose.FC.LYZ.S (ISC-enriched organoids [2]; Dose 0.40 uM): 0.204 log 2 fold change; Dose.FC.LYZ.S (ISC-enriched organoids [2]; Dose 2.00 uM): 0.017 log 2 fold change; Dose.FC.LYZ.S (ISC-enriched organoids [2]; Dose 10.00 uM): −0.124 log 2 fold change; Z.LYZ.S (ISC-enriched organoids [2]; [4]): 1.054; Z.LYZ.S (ISC-enriched organoids [2]; [5]): 1.318; Z.LYZ.S (ISC-enriched organoids [2]; [6]): 0.109; Z.LYZ.S (ISC-enriched organoids [2]; [7]): −0.802; SSMD.LYZ.S (ISC-enriched organoids [2]; [4]): 0.711; SSMD.LYZ.S (ISC-enriched organoids [2]; [5]): 0.796; SSMD.LYZ.S (ISC-enriched organoids [2]; [6]): 0.122; SSMD.LYZ.S (ISC-enriched organoids [2]; [7]): −0.824; Dose.FC.CTG (ISC-enriched organoids [3]; Dose 0.08 uM): 0.104 log 2 fold change; Z.CTG (ISC-enriched organoids [3]; Dose 0.08 uM): 0.249; Dose.FC.CTG (ISC-enriched organoids [3]; Dose 0.40 uM): 0.104 log 2 fold change; Z.CTG (ISC-enriched organoids [3]; Dose 0.40 uM): 0.248; Dose.FC.CTG (ISC-enriched organoids [3]; Dose 2.00 uM): 0.143 log 2 fold change; Z.CTG (ISC-enriched organoids [3]; Dose 2.00 uM): 0.343; Dose.FC.CTG (ISC-enriched organoids [3]; Dose 10.00 uM): −0.416 log 2 fold change; Z.CTG (ISC-enriched organoids [3]; Dose 10.00 uM): −0.993; SSMD.CTG (ISC-enriched organoids [3]; [4]): 0.298; SSMD.CTG (ISC-enriched organoids [3]; [5]): 0.360; SSMD.CTG (ISC-enriched organoids [3]; [6]): 0.530; SSMD.CTG (ISC-enriched organoids [3]; [7]): −0.731

Q: For `O=C(c1ccc(Nc2nccc(-c3cc4ccccc4s3)n2)cc1)N1CCC(N2CCCC2)CC1` [IKK-16 (IKK Inhibitor VII)], which Dose.FC.LYZ.NS (ISC-enriched organoids [1]; Dose 0.08 uM) is on record?
A: 0.104 log 2 fold change

Q: What about the Z.LYZ.NS (ISC-enriched organoids [1]; Dose 0.08 uM) of the same compound?
A: 0.903

Q: And the Dose.FC.LYZ.NS (ISC-enriched organoids [1]; Dose 0.40 uM)?
A: 0.020 log 2 fold change

Q: What about the Z.LYZ.NS (ISC-enriched organoids [1]; Dose 0.40 uM) of the same compound?
A: 0.176

Q: What about the Dose.FC.LYZ.NS (ISC-enriched organoids [1]; Dose 2.00 uM) of the same compound?
A: −0.081 log 2 fold change

Q: What about the Z.LYZ.NS (ISC-enriched organoids [1]; Dose 2.00 uM) of the same compound?
A: −0.708

Q: And the Dose.FC.LYZ.NS (ISC-enriched organoids [1]; Dose 10.00 uM)?
A: −0.291 log 2 fold change

Q: What about the Z.LYZ.NS (ISC-enriched organoids [1]; Dose 10.00 uM) of the same compound?
A: −2.531

Q: What about the SSMD.LYZ.NS (ISC-enriched organoids [1]; [4]) of the same compound?
A: 0.817

Q: What about the SSMD.LYZ.NS (ISC-enriched organoids [1]; [5]) of the same compound?
A: 0.207

Q: What about the SSMD.LYZ.NS (ISC-enriched organoids [1]; [6]) of the same compound?
A: −0.481

Q: What about the SSMD.LYZ.NS (ISC-enriched organoids [1]; [7]) of the same compound?
A: −2.119

Q: And the Dose.FC.LYZ.S (ISC-enriched organoids [2]; Dose 0.08 uM)?
A: 0.092 log 2 fold change

Q: What about the Dose.FC.LYZ.S (ISC-enriched organoids [2]; Dose 0.40 uM) of the same compound?
A: 0.028 log 2 fold change

Q: What about the Dose.FC.LYZ.S (ISC-enriched organoids [2]; Dose 2.00 uM) of the same compound?
A: −0.142 log 2 fold change

Q: And the Dose.FC.LYZ.S (ISC-enriched organoids [2]; Dose 10.00 uM)?
A: −0.383 log 2 fold change

Q: And the Z.LYZ.S (ISC-enriched organoids [2]; [4])?
A: 0.593

Q: And the Z.LYZ.S (ISC-enriched organoids [2]; [5])?
A: 0.179

Q: What about the Z.LYZ.S (ISC-enriched organoids [2]; [6]) of the same compound?
A: −0.918

Q: And the Z.LYZ.S (ISC-enriched organoids [2]; [7])?
A: −2.475

Q: What about the SSMD.LYZ.S (ISC-enriched organoids [2]; [4]) of the same compound?
A: 0.496

Q: And the SSMD.LYZ.S (ISC-enriched organoids [2]; [5])?
A: 0.203

Q: What about the SSMD.LYZ.S (ISC-enriched organoids [2]; [6]) of the same compound?
A: −0.698

Q: What about the SSMD.LYZ.S (ISC-enriched organoids [2]; [7]) of the same compound?
A: −1.351

Q: What about the Dose.FC.CTG (ISC-enriched organoids [3]; Dose 0.08 uM) of the same compound?
A: 0.058 log 2 fold change

Q: And the Z.CTG (ISC-enriched organoids [3]; Dose 0.08 uM)?
A: 0.139

Q: And the Dose.FC.CTG (ISC-enriched organoids [3]; Dose 0.40 uM)?
A: −0.051 log 2 fold change

Q: What about the Z.CTG (ISC-enriched organoids [3]; Dose 0.40 uM) of the same compound?
A: −0.122

Q: What about the Dose.FC.CTG (ISC-enriched organoids [3]; Dose 2.00 uM) of the same compound?
A: −0.431 log 2 fold change

Q: And the Z.CTG (ISC-enriched organoids [3]; Dose 2.00 uM)?
A: −1.029

Q: What about the Dose.FC.CTG (ISC-enriched organoids [3]; Dose 10.00 uM) of the same compound?
A: −0.950 log 2 fold change

Q: And the Z.CTG (ISC-enriched organoids [3]; Dose 10.00 uM)?
A: −2.268

Q: And the SSMD.CTG (ISC-enriched organoids [3]; [4])?
A: 0.131

Q: What about the SSMD.CTG (ISC-enriched organoids [3]; [5]) of the same compound?
A: −0.190

Q: What about the SSMD.CTG (ISC-enriched organoids [3]; [6]) of the same compound?
A: −0.877

Q: And the SSMD.CTG (ISC-enriched organoids [3]; [7])?
A: −1.581

Q: How did the Dose.FC.LYZ.NS (ISC-enriched organoids [1]; Dose 0.08 uM) turn out when `O=C(Nc1cc(C(F)(F)F)cc(C(F)(F)F)c1)c1cc(Cl)ccc1O` [IMD 0354] was run?
A: 0.004 log 2 fold change

Q: And the Z.LYZ.NS (ISC-enriched organoids [1]; Dose 0.08 uM)?
A: 0.035

Q: What about the Dose.FC.LYZ.NS (ISC-enriched organoids [1]; Dose 0.40 uM) of the same compound?
A: 0.101 log 2 fold change

Q: What about the Z.LYZ.NS (ISC-enriched organoids [1]; Dose 0.40 uM) of the same compound?
A: 0.880

Q: And the Dose.FC.LYZ.NS (ISC-enriched organoids [1]; Dose 2.00 uM)?
A: 0.097 log 2 fold change

Q: What about the Z.LYZ.NS (ISC-enriched organoids [1]; Dose 2.00 uM) of the same compound?
A: 0.847

Q: And the Dose.FC.LYZ.NS (ISC-enriched organoids [1]; Dose 10.00 uM)?
A: −0.089 log 2 fold change

Q: And the Z.LYZ.NS (ISC-enriched organoids [1]; Dose 10.00 uM)?
A: −0.777

Q: And the SSMD.LYZ.NS (ISC-enriched organoids [1]; [4])?
A: 0.021

Q: And the SSMD.LYZ.NS (ISC-enriched organoids [1]; [5])?
A: 0.439

Q: And the SSMD.LYZ.NS (ISC-enriched organoids [1]; [6])?
A: 0.612

Q: What about the SSMD.LYZ.NS (ISC-enriched organoids [1]; [7]) of the same compound?
A: −0.729

Q: And the Dose.FC.LYZ.S (ISC-enriched organoids [2]; Dose 0.08 uM)?
A: −0.047 log 2 fold change

Q: What about the Dose.FC.LYZ.S (ISC-enriched organoids [2]; Dose 0.40 uM) of the same compound?
A: 0.043 log 2 fold change

Q: And the Dose.FC.LYZ.S (ISC-enriched organoids [2]; Dose 2.00 uM)?
A: 0.083 log 2 fold change

Q: And the Dose.FC.LYZ.S (ISC-enriched organoids [2]; Dose 10.00 uM)?
A: −0.128 log 2 fold change

Q: And the Z.LYZ.S (ISC-enriched organoids [2]; [4])?
A: −0.303

Q: And the Z.LYZ.S (ISC-enriched organoids [2]; [5])?
A: 0.281

Q: And the Z.LYZ.S (ISC-enriched organoids [2]; [6])?
A: 0.534

Q: What about the Z.LYZ.S (ISC-enriched organoids [2]; [7]) of the same compound?
A: −0.826

Q: What about the SSMD.LYZ.S (ISC-enriched organoids [2]; [4]) of the same compound?
A: −0.335

Q: What about the SSMD.LYZ.S (ISC-enriched organoids [2]; [5]) of the same compound?
A: 0.203

Q: What about the SSMD.LYZ.S (ISC-enriched organoids [2]; [6]) of the same compound?
A: 0.537

Q: And the SSMD.LYZ.S (ISC-enriched organoids [2]; [7])?
A: −0.736

Q: And the Dose.FC.CTG (ISC-enriched organoids [3]; Dose 0.08 uM)?
A: −0.007 log 2 fold change

Q: What about the Z.CTG (ISC-enriched organoids [3]; Dose 0.08 uM) of the same compound?
A: −0.017

Q: And the Dose.FC.CTG (ISC-enriched organoids [3]; Dose 0.40 uM)?
A: 0.117 log 2 fold change

Q: What about the Z.CTG (ISC-enriched organoids [3]; Dose 0.40 uM) of the same compound?
A: 0.280

Q: And the Dose.FC.CTG (ISC-enriched organoids [3]; Dose 2.00 uM)?
A: 0.076 log 2 fold change

Q: What about the Z.CTG (ISC-enriched organoids [3]; Dose 2.00 uM) of the same compound?
A: 0.181

Q: And the Dose.FC.CTG (ISC-enriched organoids [3]; Dose 10.00 uM)?
A: −0.480 log 2 fold change

Q: What about the Z.CTG (ISC-enriched organoids [3]; Dose 10.00 uM) of the same compound?
A: −1.146

Q: What about the SSMD.CTG (ISC-enriched organoids [3]; [4]) of the same compound?
A: −0.019

Q: What about the SSMD.CTG (ISC-enriched organoids [3]; [5]) of the same compound?
A: 0.258

Q: And the SSMD.CTG (ISC-enriched organoids [3]; [6])?
A: 0.274

Q: And the SSMD.CTG (ISC-enriched organoids [3]; [7])?
A: −0.748
